Columns and labels:
Type in all cases: cell-based
human SGLT homolog [1] = molecular target: T1, human SGLT homolog (Homo sapiens, UniProt Q2M3M2, I269M); test: α-methyl glucose uptake in CHO cell expressing the SGLT homolog; conditions: CHO cells, NaCl + 10 μM or 100 μM Phlorizin, one-hour incubation, FIG. 3
T1 construct: expressed in transfected cells
T1 sequence (Q2M3M2 8-681 I269M): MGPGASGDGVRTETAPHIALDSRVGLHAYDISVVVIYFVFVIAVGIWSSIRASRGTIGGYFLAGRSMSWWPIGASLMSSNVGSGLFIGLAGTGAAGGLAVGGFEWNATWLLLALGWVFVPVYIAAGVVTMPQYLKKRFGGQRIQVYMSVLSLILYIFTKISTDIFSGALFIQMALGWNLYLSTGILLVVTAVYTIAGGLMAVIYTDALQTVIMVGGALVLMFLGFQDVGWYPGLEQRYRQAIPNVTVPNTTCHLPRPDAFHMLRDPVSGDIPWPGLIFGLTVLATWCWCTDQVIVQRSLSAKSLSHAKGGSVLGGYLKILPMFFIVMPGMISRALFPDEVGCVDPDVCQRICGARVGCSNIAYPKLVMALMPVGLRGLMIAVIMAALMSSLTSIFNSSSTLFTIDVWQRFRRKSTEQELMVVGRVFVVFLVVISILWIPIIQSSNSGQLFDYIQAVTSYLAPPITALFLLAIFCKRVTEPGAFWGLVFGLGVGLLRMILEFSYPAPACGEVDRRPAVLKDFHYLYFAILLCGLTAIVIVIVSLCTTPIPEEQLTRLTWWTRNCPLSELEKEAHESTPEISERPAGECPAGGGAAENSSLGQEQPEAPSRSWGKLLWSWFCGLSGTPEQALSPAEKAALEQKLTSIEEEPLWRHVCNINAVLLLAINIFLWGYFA
Method: Each cDNA of human SGLT1 (NCBI Accession NM_000343) and SGLT2 (NCBI Accession NM_003041) was amplified by PCR from Clontech MTC panel kidney cDNA library, and subcloned into the expression vector for animal cells, pME18S between EcoRI and SpeI sites to prepare pME18S-hSGLT1 and pME18S-hSGLT2. CHO cells (1×10^6 cells) were co-transfected with each 5 μg of plasmids pME18S, pMEI 8S-SGLT homolog, pMEI 8S-hSGLT1, and pME18S-hSGLT2, and the expression vector for animal cells, pRSVneo […] according to the LipofectAMINE PLUS method (GIBCOBRL). These cells were cultured in DMEM containing G418 (500 μg/ml) and 10% FBS for 2 weeks to select the drug-resistant clones.
Total RNAs were extracted from respective G418-resistant CHO cells using RNAeasy Mini Kit (Quiagen). The expression of the SGLT homolog, hSGLT1 and hSGLT2 was quantified using TaqMan Gold RT-PCR Kit (PE Biosystems) according to the TaqMan PCR method to select CHO cells expressing each gene.
Experimental incorporation of α-methyl glucose into the CHO cell expressing the SGLT homolog, the CHO cell expressing hSGLT1, the CHO cell expressing hSGLT2, and the CHO cell having pME18S was carried out according to the method described in Am. J. Physiol. 270:G833-G843 (1996) and J. Clin. Invest. 93:397-404, 1994. […] The radioactivity of ^14C incorporated into the cells was counted with 100 μl of a liquid scintillator added per well.

rat SGLT homolog = test: α-methyl glucose uptake in COS7 cell expressing the rat SGLT homolog; conditions: COS7 cells, NaCl + 100 μM or 1 mM phlorizin, one-hour incubation, FIG. 9
Method: The cDNA of human SGLT1 (NCBI Accession NM_000343) was amplified by PCR from Clontech MTC panel kidney cDNA library, and subcloned into the expression vector for animal cells, pME18S between EcoRI and SpeI sites to prepare pME18S-hSGLT1. COS7 cells (5×10^5 cells) were transfected with each 1 μg of plasmids pME18S, pME18S-hSGLT1, and pME18S-rat-SGLT-homolog according to the FuGENE6 method (Roche).
(§1) Experimental incorporation of α-methyl glucose into the COS7 cell having pME18S, the COS7 cell expressing hSGLT1, and the COS7 cell expressing the rat SGLT homolog was carried out according to the method described in Am. J. Physiol. 270:G833-G843 (1996) and J. Clin. Invest. 93:397-404, 1994. These cells were plated on a 96-well plate in a cell density of 3×10^4 cells/well and in a volume of 100 μl of DMEM containing 10% FBS per well, and cultured overnight at 37° C. The cells were washed 3 times with 150 μl of a buffer solution (125 mM KCl, 1.2 mM KH2PO4, 2.5 mM CaCl2, 1.2 mM MgSO4, 4 mM Glutamine, 10 mM HEPES (pH 7.2), 0.1 mg/ml BSA), and cultured for an hour in the same buffer solution to remove the rest of glucose. […] The radioactivity of ^14C incorporated into the cells was counted with 100 μl of a liquid scintillator added per well.

human SGLT homolog [2] = molecular target: T1, human SGLT homolog; test: α-methyl glucose uptake in COS7 cells carrying pME18S-human-SGLT-homolog (pTB2193); conditions: NaCl + 100 μM or 1 mM phlorizin, one-hour incubation, FIG. 12
Method: Each 1 μg of the expression vectors for animal cells: pME18S, pME18S-hSGLT2, pME18S-human-SGLT-homolog (pTB2193), pME18S-human-SGLT-homolog-SNP-C1 (pTB2251), pME18S-human-SGLT-homolog-SNP-C2 (pTB2252) and pME18S-human-SGLT-homolog-SNP-C3 (pTB2253), and 3 μl of FuGENE 6 (Roche) were added to Opti-MEM (Gibco-BRL) 100 μl for 15 min at room temperature. These mixtures were then added to COS7 cells (1×10^6 cells/1 ml of DMEM containing 10% FBS/well in 6-well plate) so that each gene was introduced into the cells.
Experimental incorporation of α-methyl glucose into the COS7 cells carrying pME 18S, pME18S-hSGLT2, pME 18S-human-SGLT-homolog (pTB2193), pME18S-human-SGLT-homolog-SNP-C 1 (pTB2251), pME18S-human-SGLT-homolog-SNP-C2 (pTB2252), and pME18S-human-SGLT-homolog-SNP-C3 (pTB2253) was carried out according to the method described in Am. J. Physiol. 270:G833-G843 (1996) and J. Clin. Invest. 93:397-404 (1994).
These gene-transfected cells were cultured for a day, and then plated on a 96-well plate in a cell density of 3×10^4 cells/well and in a volume of 100 μl of DMEM containing 10% FBS per well, and further cultured overnight at 37° C. […] The radioactivity of ^14C incorporated into the cells was counted with 100 μl of a liquid scintillator added per well.

mouse SGLT homolog = molecular target: T2, mouse SGLT homolog (Mus musculus, UniProt Q8VDT1); test: α-methyl glucose uptake in COS7 cell expressing the mouse SGLT homolog; conditions: COS7 cells, NaCl + 100 μM or 1 mM phlorizin, one-hour incubation, FIG. 6
T2 construct: expressed in transfected cells; host or cells: COS7 cells, transient, FuGENE6
T2 sequence (Q8VDT1 8-685): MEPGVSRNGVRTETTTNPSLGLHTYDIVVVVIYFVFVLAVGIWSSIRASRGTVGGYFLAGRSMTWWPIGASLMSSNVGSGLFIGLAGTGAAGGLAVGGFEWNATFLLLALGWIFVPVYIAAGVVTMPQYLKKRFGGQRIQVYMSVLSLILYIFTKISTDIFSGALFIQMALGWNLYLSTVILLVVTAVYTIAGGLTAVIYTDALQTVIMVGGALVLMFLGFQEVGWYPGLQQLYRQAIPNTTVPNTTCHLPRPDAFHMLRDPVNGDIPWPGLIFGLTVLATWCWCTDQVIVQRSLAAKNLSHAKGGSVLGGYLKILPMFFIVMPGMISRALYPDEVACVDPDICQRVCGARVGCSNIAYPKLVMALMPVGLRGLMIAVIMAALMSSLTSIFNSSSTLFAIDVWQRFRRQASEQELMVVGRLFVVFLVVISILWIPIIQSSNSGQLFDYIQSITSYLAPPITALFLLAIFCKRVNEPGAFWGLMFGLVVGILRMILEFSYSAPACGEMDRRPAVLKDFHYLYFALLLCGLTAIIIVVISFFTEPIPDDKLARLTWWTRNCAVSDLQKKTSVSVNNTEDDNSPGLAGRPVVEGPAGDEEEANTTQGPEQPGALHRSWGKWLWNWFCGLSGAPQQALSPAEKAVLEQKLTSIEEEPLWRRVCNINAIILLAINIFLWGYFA
Method: The cDNA of human SGLT1 (NCBI Accession NM_000343) was amplified by PCR from Clontech MTC panel kidney cDNA library, and subcloned into the expression vector for animal cells, pME18S between EcoRI and SpeI sites to prepare pME18S-hSGLT1. COS7 cells (5×10^5 cells) were transfected with each 1 μg of plasmids pME18S, pME18S-hSGLT1, and pME18S-mouse-SGLT-homolog according to the FuGENE6 method (Roche).
as §1, with “having pMEI 8S,” for “having pME18S,”, “the mouse” for “the rat”, “Invest. 93:397-404,1994.” for “Invest. 93:397-404, 1994.”

O=C(CCc1ccc(O)cc1)c1c(O)cc(O)cc1O[C@@H]1O[C@H](CO)[C@@H](O)[C@H](O)[C@H]1O [phlorizin]
inhibited: inhibition of Na-dependent α-methyl glucose uptake activity (human SGLT homolog [1]) | inhibition of Na+-dependent α-methyl glucose uptake activity (rat SGLT homolog) | inhibition of NaCl-dependent glucose uptake activity (human SGLT homolog [2]) | inhibition of Na+-dependent α-methyl glucose uptake activity (mouse SGLT homolog)
